Marks after values point to notes of the source that are not given here.
Tests used:
[1] = test system: cow clinical endometritis; experiment: treatment of cow clinical endometritis; type: in vivo, cows; details: n = 10
Description: Anemoside B4 injection prepared in example 3, with a concentration of 50 mg/mL; Anemoside B4 intrauterine injection prepared in example 5, with a concentration of 50 mg/mL.
Positive drug: doxycycline hydrochloride intrauterine injection (24 g/injection, produced by Zhengzhou Bairui Animal Pharmaceutical Co., Ltd., batch No.: 170901).
130 cows with disease were randomly divided into 13 groups, 10 cows for each group.
The cows selected in this experiment were all those with clinical endometritis. During the experiment, the temperature, spirit and diet of the cows were normal.
Administration by […] injection: Administrating anemoside B4 by intramulscular injection, twice per day, one in the morning and another in the evening, for successive four days;
Administration by intrauterine infusion: administrating anemoside B4 and positive drug doxycycline hydrochloride by intrauterine infusion, once every other day, for 4 times.
A blank control group was set up in different administration routes, and the same dose of normal saline was administered.

[2] = test system: cow foot rot disease; experiment: treatment of cow foot rot disease; type: in vivo, cows; details: for Milk production (daily yield) / Total number of cured cows: n = 10
[3] = test system: canine parvovirus; experiment: treatment of canine parvovirus; type: in vivo, dogs; parameters: White blood cell count: unit not given here; details: 14 days, n = 10
Description: (§1) Anemoside B4 injection prepared in example 3, with a concentration of 50 mg/mL.
Dogs suffering from canine parvovirus are cases received by various pet hospitals in Chengdu.
In the early, dogs have high temperature and vomit violently. The vomit changes from white to yellow, and finally to green, with a small amount of blood streak; eyes' conjunctival congestion and tears; liking drinking water and vomiting after drinking; fecal jets are like tomato sauce, smelly and unpleasant; preferring to lie down; the number of white blood cells dropped sharply, together with severe dehydration, heart failure, and shock to death.
(§2) Anemoside B4 injection was intravenously injected, 2 mL/time in low-dose group, 4 mL/time in medium-dose group, 8 mL/time in high-dose group, once a day; anemoside B4 injection was intramuscularly injected, 1 mL/time in low-dose group, 2 mL/time in the middle-dose group, 4 mL/time in the high-dose group, twice a day; the treatment was kept for 14 days.

[4] = test system: canine distemper; experiment: treatment of canine distemper; type: in vivo, dogs; details: for Cure / Death: 14 days, 10 dogs treated
Description: as §1
Dogs suffering from canine distemper are cases received by various pet hospitals in Chengdu.
According to the clinical symptoms, canine distemper can be divided into early, middle and late stages.
The vomit is mucus or yellow liquid, while the stool is dark brown or covered with mucus. As the progress of the disease course, dogs with canine distemper often develop secondary bacterial infections due to their decreased resistance.
as §2

[5] = test system: canine acute nephritis; experiment: treatment of canine acute nephritis; type: in vivo, dogs; details: 14 days, n = 10; for Positive rate of white blood cell (+++, %): urine
Description: as §1
Dogs suffering from acute nephritis are cases received by various pet hospitals in Chengdu city.
The sick dogs are characterized by loss of appetite, indigestion, depression, and a slight increase in body temperature.
as §2

[6] = high-dose, intramuscular injection 30 mL/time (50 mg/mL), twice per day, 4 days
[7] = high-dose, intrauterine infusion 30 mL/time (50 mg/mL), once every other day, 4 times
[8] = high-dose, intravenous injection 60 mL/time (50 mg/mL)
[9] = low-dose, intramuscular injection 10 mL/time (50 mg/mL), twice per day, 4 days
[10] = low-dose, intrauterine infusion 10 mL/time (50 mg/mL), once every other day, 4 times
[11] = low-dose, intravenous injection 20 mL/time (50 mg/mL)
[12] = medium-dose, intramuscular injection 20 mL/time (50 mg/mL), twice per day, 4 days
[13] = medium-dose, intrauterine infusion 20 mL/time (50 mg/mL), once every other day, 4 times
[14] = medium-dose, intravenous injection 40 mL/time (50 mg/mL)
[15] = high-dose, intravenous injection 60 mL (50 mg/mL), once a day, 4 days
[16] = high-dose, pulvis 1.5 g, external application, once every other day, 4 times
[17] = high-dose, subcutaneous injection 15 mL (50 mg/mL) in affected limbs, once a day, 4 days
[18] = low-dose, intravenous injection 20 mL (50 mg/mL), once a day, 4 days
[19] = low-dose, pulvis 0.5 g, external application, once every other day, 4 times
[20] = low-dose, subcutaneous injection 5 mL (50 mg/mL) in affected limbs, once a day, 4 days
[21] = medium-dose, intravenous injection 40 mL (50 mg/mL), once a day, 4 days
[22] = medium-dose, pulvis 1.0 g, external application, once every other day, 4 times
[23] = medium-dose, subcutaneous injection 10 mL (50 mg/mL) in affected limbs, once a day, 4 days
[24] = high-dose, intramuscular injection 4 mL/time (50 mg/mL), twice a day
[25] = high-dose, intravenous injection 8 mL/time (50 mg/mL), once a day
[26] = low-dose, intramuscular injection 1 mL/time (50 mg/mL), twice a day
[27] = low-dose, intravenous injection 2 mL/time (50 mg/mL), once a day
[28] = medium-dose, intramuscular injection 2 mL/time (50 mg/mL), twice a day
[29] = medium-dose, intravenous injection 4 mL/time (50 mg/mL), once a day

C=C(C)[C@@H]1CC[C@]2(C(=O)O[C@@H]3O[C@H](CO[C@@H]4O[C@H](CO)[C@@H](O[C@@H]5O[C@@H](C)[C@H](O)[C@@H](O)[C@H]5O)[C@H](O)[C@H]4O)[C@@H](O)[C@H](O)[C@H]3O)CC[C@]3(C)[C@H](CC[C@@H]4[C@@]5(C)CC[C@H](O[C@@H]6OC[C@H](O)[C@H](O)[C@H]6O[C@@H]6O[C@@H](C)[C@H](O)[C@@H](O)[C@H]6O)[C@@](C)(CO)[C@@H]5CC[C@]43C)[C@H]12 [anemoside B4]
Mean time of first estrus after medication [1, 6]: 25 ± 5.5 days
Oestrus rate [1, 6]: 65* %
Pregnancy rate in three estrous periods after delivery [1, 6]: 56* %
Mean time of first estrus after medication [1, 7]: 23 ± 6.2 days
Oestrus rate [1, 7]: 78* %
Pregnancy rate in three estrous periods after delivery [1, 7]: 75* %
Mean time of first estrus after medication [1, 8]: 24 ± 5.2 days
Oestrus rate [1, 8]: 68* %
Pregnancy rate in three estrous periods after delivery [1, 8]: 58* %
Mean time of first estrus after medication [1, 9]: 27 ± 5.8 days
Oestrus rate [1, 9]: 54%
Pregnancy rate in three estrous periods after delivery [1, 9]: 42%
Mean time of first estrus after medication [1, 10]: 25 ± 5.4 days
Oestrus rate [1, 10]: 64%
Pregnancy rate in three estrous periods after delivery [1, 10]: 52%
Mean time of first estrus after medication [1, 11]: 27 ± 6.4 days
Oestrus rate [1, 11]: 57%
Pregnancy rate in three estrous periods after delivery [1, 11]: 46%
Mean time of first estrus after medication [1, 12]: 26 ± 4.6 days
Oestrus rate [1, 12]: 60%
Pregnancy rate in three estrous periods after delivery [1, 12]: 52%
Mean time of first estrus after medication [1, 13]: 24 ± 7.3 days
Oestrus rate [1, 13]: 74* %
Pregnancy rate in three estrous periods after delivery [1, 13]: 70* %
Mean time of first estrus after medication [1, 14]: 26 ± 4.3 days
Oestrus rate [1, 14]: 63%
Pregnancy rate in three estrous periods after delivery [1, 14]: 52%
cure rate ([2]; high-dose subcutaneous injection group, middle- and high-dose pulvis groups): above 80%
Milk production (daily yield) [2, 15]: 22.2 ± 1.5 kg/cow
Total number of cured cows [2, 15]: 6
Milk production (daily yield) [2, 16]: 25.9 ± 2.4 kg/cow
Total number of cured cows [2, 16]: 9
Milk production (daily yield) [2, 17]: 25.6 ± 2.8 kg/cow
Total number of cured cows [2, 17]: 8
Milk production (daily yield) [2, 18]: 18.2 ± 1.4 kg/cow
Total number of cured cows [2, 18]: 4
Milk production (daily yield) [2, 19]: 22.6 ± 2.5 kg/cow
Total number of cured cows [2, 19]: 6
Milk production (daily yield) [2, 20]: 20.4 ± 1.9 kg/cow
Total number of cured cows [2, 20]: 5
Milk production (daily yield) [2, 21]: 20.8 ± 2.2 kg/cow
Total number of cured cows [2, 21]: 5
Milk production (daily yield) [2, 22]: 24.2 ± 1.7 kg/cow
Total number of cured cows [2, 22]: 8
Milk production (daily yield) [2, 23]: 22.1 ± 1.6 kg/cow
Total number of cured cows [2, 23]: 7
Body temperature [3, 24]: 37.8 ± 0.4 °C
Mortality rate [3, 24]: 50%
White blood cell count [3, 24]: 6.2 ± 0.5 ×10^9
Body temperature [3, 25]: 37.4 ± 0.2 °C
Mortality rate [3, 25]: 30%
White blood cell count [3, 25]: 8.2 ± 0.7 ×10^9
Body temperature [3, 26]: 39.2 ± 0.5 °C
Mortality rate [3, 26]: 80%
White blood cell count [3, 26]: 3.3 ± 0.3 ×10^9
Body temperature [3, 27]: 38.2 ± 0.5 °C
Mortality rate [3, 27]: 50%
White blood cell count [3, 27]: 6.3 ± 0.4 ×10^9
Body temperature [3, 28]: 38.4 ± 0.3 °C
Mortality rate [3, 28]: 60%
White blood cell count [3, 28]: 4.6 ± 0.8 ×10^9
Body temperature [3, 29]: 37.6 ± 0.3 °C
Mortality rate [3, 29]: 40%
White blood cell count [3, 29]: 7.6 ±0.6 ×10^9
therapeutic effect on canine distemper (conclusion in words) ([4]; dogs): a better therapeutic effect on canine distemper
Cure [4, 24]: 5 dog
Death [4, 24]: 5 dog
Cure [4, 25]: 6 dog
Death [4, 25]: 4 dog
Cure [4, 26]: 3 dog
Death [4, 26]: 7 dog
Cure [4, 27]: 4 dog
Death [4, 27]: 6 dog
Cure [4, 28]: 4 dog
Death [4, 28]: 6 dog
Cure [4, 29]: 5 dog
Death [4, 29]: 5 dog
Body temperature [5, 24]: 39.0 ± 0.2 °C
Mortality rate [5, 24]: 50%
Positive rate of urine protein (+++, %) [5, 24]: 60%
Urine specific gravity [5, 24]: 1.064 ± 0.02
Body temperature [5, 25]: 38.5 ± 0.4 °C
Mortality rate [5, 25]: 30%
Positive rate of urine protein (+++, %) [5, 25]: 30%
Urine specific gravity [5, 25]: 1.003 ± 0.01
Body temperature [5, 26]: 39.5 ± 0.3 °C
Mortality rate [5, 26]: 60%
Positive rate of urine protein (+++, %) [5, 26]: 80%
Urine specific gravity [5, 26]: 1.123 ± 0.01
Body temperature [5, 27]: 38.7 ± 0.5 °C
Mortality rate [5, 27]: 50%
Positive rate of urine protein (+++, %) [5, 27]: 50%
Urine specific gravity [5, 27]: 1.017 ± 0.25
Body temperature [5, 28]: 39.3 ± 0.4 °C
Mortality rate [5, 28]: 60%
Positive rate of urine protein (+++, %) [5, 28]: 70%
Urine specific gravity [5, 28]: 1.094 ± 0.04
Body temperature [5, 29]: 38.8 ± 0.3 °C
Mortality rate [5, 29]: 40%
Positive rate of urine protein (+++, %) [5, 29]: 40%
Urine specific gravity [5, 29]: 1.005 ± 0.09
Positive rate of white blood cell (+++, %) [5, 24]: 70%
Positive rate of white blood cell (+++, %) [5, 25]: 30%
Positive rate of white blood cell (+++, %) [5, 26]: 80%
Positive rate of white blood cell (+++, %) [5, 27]: 60%
Positive rate of white blood cell (+++, %) [5, 28]: 80%
Positive rate of white blood cell (+++, %) [5, 29]: 40%

From patent US11510933B2, “Use of Pulsatilla chinensis extract in the preparation of drugs for treatment of viral and/or bacterial diseases” (priority 2018, dated 2022)
